Measurements from publication PMC12454493, “Insight on novel sulfamoylphenyl pyrazole derivatives as anticancer carbonic anhydrase inhibitors” (Molecular Diversity, 2024).
Where “and” joins values, the source holds several entries; their conditions need not be identical. Equal entries are not always repeated.

Experiments:
CCRF-CEM = assay: NCI-60 one-dose SRB screen (Leukemia); format: cell-based; conditions: Homo sapiens, single dose 10 µM, 48 h, read-out: Growth inhibition percent (GI %)
HL-60(TB) = assay: NCI-60 one-dose SRB screen (Leukemia); format: cell-based; conditions: Homo sapiens, single dose 10 µM, 48 h, read-out: Growth inhibition percent (GI %)
K-562 = assay: NCI-60 one-dose SRB screen (Leukemia); format: cell-based; conditions: Homo sapiens, K562, single dose 10 µM, 48 h, read-out: Growth inhibition percent (GI %)
MOLT-4 = assay: NCI-60 one-dose SRB screen (Leukemia); format: cell-based; conditions: Homo sapiens, single dose 10 µM, 48 h, read-out: Growth inhibition percent (GI %)
RPMI-8226 = assay: NCI-60 one-dose SRB screen (Leukemia); format: cell-based; conditions: Homo sapiens, single dose 10 µM, 48 h, read-out: Growth inhibition percent (GI %)
SR = assay: NCI-60 one-dose SRB screen (Leukemia); format: cell-based; conditions: Homo sapiens, single dose 10 µM, 48 h, read-out: Growth inhibition percent (GI %)
A549/ATCC = assay: NCI-60 one-dose SRB screen (Non-Small Cell Lung Cancer); format: cell-based; conditions: Homo sapiens, single dose 10 µM, 48 h, read-out: Growth inhibition percent (GI %)
EKVX = assay: as above; format: cell-based; conditions: Homo sapiens, single dose 10 µM, 48 h, read-out: Growth inhibition percent (GI %)
HOP-62 = assay: as above; format: cell-based; conditions: Homo sapiens, single dose 10 µM, 48 h, read-out: Growth inhibition percent (GI %)
HOP-92 = assay: as above; format: cell-based; conditions: Homo sapiens, single dose 10 µM, 48 h, read-out: Growth inhibition percent (GI %)
NCI-H226 = assay: as above; format: cell-based; conditions: Homo sapiens, single dose 10 µM, 48 h, read-out: Growth inhibition percent (GI %)
NCI-H23 = assay: as above; format: cell-based; conditions: Homo sapiens, single dose 10 µM, 48 h, read-out: Growth inhibition percent (GI %)
NCI-H322M = assay: as above; format: cell-based; conditions: Homo sapiens, single dose 10 µM, 48 h, read-out: Growth inhibition percent (GI %)
NCI-H460 = assay: as above; format: cell-based; conditions: Homo sapiens, single dose 10 µM, 48 h, read-out: Growth inhibition percent (GI %)
NCI-H522 = assay: as above; format: cell-based; conditions: Homo sapiens, single dose 10 µM, 48 h, read-out: Growth inhibition percent (GI %)
COLO 205 = assay: NCI-60 one-dose SRB screen (Colon Cancer); format: cell-based; conditions: Homo sapiens, single dose 10 µM, 48 h, read-out: Growth inhibition percent (GI %)
HCC-2998 = assay: NCI-60 one-dose SRB screen (Colon Cancer); format: cell-based; conditions: Homo sapiens, single dose 10 µM, 48 h, read-out: Growth inhibition percent (GI %)
HCT-116 = assay: NCI-60 one-dose SRB screen (Colon Cancer); format: cell-based; conditions: Homo sapiens, single dose 10 µM, 48 h, read-out: Growth inhibition percent (GI %)
HCT-15 = assay: NCI-60 one-dose SRB screen (Colon Cancer); format: cell-based; conditions: Homo sapiens, single dose 10 µM, 48 h, read-out: Growth inhibition percent (GI %)
HT29 = assay: NCI-60 one-dose SRB screen (Colon Cancer); format: cell-based; conditions: Homo sapiens, HT-29, single dose 10 µM, 48 h, read-out: Growth inhibition percent (GI %)
KM12 = assay: NCI-60 one-dose SRB screen (Colon Cancer); format: cell-based; conditions: Homo sapiens, single dose 10 µM, 48 h, read-out: Growth inhibition percent (GI %)
SW-620 = assay: NCI-60 one-dose SRB screen (Colon Cancer); format: cell-based; conditions: Homo sapiens, single dose 10 µM, 48 h, read-out: Growth inhibition percent (GI %)
SF-268 = assay: NCI-60 one-dose SRB screen (CNS Cancer); format: cell-based; conditions: Homo sapiens, single dose 10 µM, 48 h, read-out: Growth inhibition percent (GI %)
SF-295 = assay: NCI-60 one-dose SRB screen (CNS Cancer); format: cell-based; conditions: Homo sapiens, single dose 10 µM, 48 h, read-out: Growth inhibition percent (GI %)
SF-539 = assay: NCI-60 one-dose SRB screen (CNS Cancer); format: cell-based; conditions: Homo sapiens, single dose 10 µM, 48 h, read-out: Growth inhibition percent (GI %)
SNB-19 = assay: NCI-60 one-dose SRB screen (CNS Cancer); format: cell-based; conditions: Homo sapiens, single dose 10 µM, 48 h, read-out: Growth inhibition percent (GI %)
SNB-75 = assay: NCI-60 one-dose SRB screen (CNS Cancer); format: cell-based; conditions: Homo sapiens, single dose 10 µM, 48 h, read-out: Growth inhibition percent (GI %)
U251 = assay: NCI-60 one-dose SRB screen (CNS Cancer); format: cell-based; conditions: Homo sapiens, U-251, single dose 10 µM, 48 h, read-out: Growth inhibition percent (GI %)
M14 = assay: NCI-60 one-dose SRB screen (Melanoma); format: cell-based; conditions: Homo sapiens, single dose 10 µM, 48 h, read-out: Growth inhibition percent (GI %)
MALME-3M = assay: NCI-60 one-dose SRB screen (Melanoma); format: cell-based; conditions: Homo sapiens, single dose 10 µM, 48 h, read-out: Growth inhibition percent (GI %)
MDA-MB-435 = assay: NCI-60 one-dose SRB screen (Melanoma); format: cell-based; conditions: Homo sapiens, single dose 10 µM, 48 h, read-out: Growth inhibition percent (GI %)
SK-MEL-28 = assay: NCI-60 one-dose SRB screen (Melanoma); format: cell-based; conditions: Homo sapiens, single dose 10 µM, 48 h, read-out: Growth inhibition percent (GI %)
SK-MEL-2 = assay: NCI-60 one-dose SRB screen (Melanoma); format: cell-based; conditions: Homo sapiens, single dose 10 µM, 48 h, read-out: Growth inhibition percent (GI %)
SK-MEL-5 = assay: NCI-60 one-dose SRB screen (Melanoma); format: cell-based; conditions: Homo sapiens, single dose 10 µM, 48 h, read-out: Growth inhibition percent (GI %)
UACC-257 = assay: NCI-60 one-dose SRB screen (Melanoma); format: cell-based; conditions: Homo sapiens, single dose 10 µM, 48 h, read-out: Growth inhibition percent (GI %)
UACC-62 = assay: NCI-60 one-dose SRB screen (Melanoma); format: cell-based; conditions: Homo sapiens, single dose 10 µM, 48 h, read-out: Growth inhibition percent (GI %)
786-0 = assay: NCI-60 one-dose SRB screen (Renal Cancer); format: cell-based; conditions: Homo sapiens, single dose 10 µM, 48 h, read-out: Growth inhibition percent (GI %)
A498 = assay: NCI-60 one-dose SRB screen (Renal Cancer); format: cell-based; conditions: Homo sapiens, single dose 10 µM, 48 h, read-out: Growth inhibition percent (GI %)
ACHN = assay: NCI-60 one-dose SRB screen (Renal Cancer); format: cell-based; conditions: Homo sapiens, single dose 10 µM, 48 h, read-out: Growth inhibition percent (GI %)
CAKI-1 = assay: NCI-60 one-dose SRB screen (Renal Cancer); format: cell-based; conditions: Homo sapiens, single dose 10 µM, 48 h, read-out: Growth inhibition percent (GI %)
RXF 393 = assay: NCI-60 one-dose SRB screen (Renal Cancer); format: cell-based; conditions: Homo sapiens, single dose 10 µM, 48 h, read-out: Growth inhibition percent (GI %)
SN12C = assay: NCI-60 one-dose SRB screen (Renal Cancer); format: cell-based; conditions: Homo sapiens, single dose 10 µM, 48 h, read-out: Growth inhibition percent (GI %)
TK-10 = assay: NCI-60 one-dose SRB screen (Renal Cancer); format: cell-based; conditions: Homo sapiens, single dose 10 µM, 48 h, read-out: Growth inhibition percent (GI %)
UO-31 = assay: NCI-60 one-dose SRB screen (Renal Cancer); format: cell-based; conditions: Homo sapiens, single dose 10 µM, 48 h, read-out: Growth inhibition percent (GI %)
hCA IX = hCA IX (Homo sapiens, UniProt Q16790); assay: CA inhibitory activity, spectrophotometric p-NPA assay; format: biochemical; conditions: for IC50: p-NPA substrate, pH 7.5, 25 °C, triplicate, read-out: IC50 (µM) ± SD hCA IX
Method: The software used to calculate CA IC50 along with statistical analysis of the results is GraphPad Prism 9.00. Results were estimated by using one-way ANOVA and the Bonferroni’s multiple comparisons posthoc test was performed (P < 0.05) [46]
Carbonic anhydrase inhibitory activity:
The spectrophotometric assay was conducted in HEPES-Tris buffer, NaCl of pH 7.5 (20mM) at 25◦C. Each inhibitory well-consisted of 50 μL of assay buffer solution, 20 μL of hCA enzyme solution (20 ng/μL in Assay Buffer), and 50 μL of test compound in HPLC grade DMSO (maintain 10% of the final concentration). The mixture solution was
Substrate p-nitrophenyl acetate (p-NPA) (0.7mM) was prepared in HPLC grade methanol and the reaction was started by adding 20 μL to a well in a 96-well-plate. The amount of product formed was measured for 30 min continuously at 1 min intervals at 400 nm in a 96-well-plate using xMARK microplate spectrophotometer, Bio-Rad (USA). The activity of the controlled compound was taken as 100%. All experiments were carried out in triplicates of each used concentration, and results are represented as a

hCA XII = hCA XII (Homo sapiens, UniProt O43570); assay: as above; format: biochemical; conditions: p-NPA substrate, pH 7.5, 25 °C, triplicate; read-out: IC50 (µM) ± SD hCA XII
Chain of hCA XII (O43570 25-354): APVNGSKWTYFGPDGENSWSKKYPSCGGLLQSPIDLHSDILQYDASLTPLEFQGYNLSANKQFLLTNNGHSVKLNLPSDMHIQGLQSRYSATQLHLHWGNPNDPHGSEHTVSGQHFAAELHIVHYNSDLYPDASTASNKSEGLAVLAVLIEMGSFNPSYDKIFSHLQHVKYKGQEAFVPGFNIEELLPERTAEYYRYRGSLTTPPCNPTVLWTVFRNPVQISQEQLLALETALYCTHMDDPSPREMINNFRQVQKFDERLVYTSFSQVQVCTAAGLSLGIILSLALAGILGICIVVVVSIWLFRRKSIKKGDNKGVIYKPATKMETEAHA

Compound: CCOC(=O)c1ccc(NC(=O)COC(=O)c2cn(-c3ccc(S(N)(=O)=O)cc3)nc2-c2ccc(OC)cc2)cc1 [Compound 5c, 2-[(4-(Ethoxycarbonyl)phenyl)amino]-2-oxoethyl 3-(4-methoxyphenyl)-1-(4-sulfamoylphenyl)-1H-pyrazole-4-carboxylate]
- inhibition at 10 µM (CCRF-CEM): 62.6%
- inhibition at 10 µM (HL-60(TB)): 48.4%
- inhibition at 10 µM (K-562): 61.7%
- inhibition at 10 µM (MOLT-4): 65.9%
- inhibition at 10 µM (RPMI-8226): 58.6%
- inhibition at 10 µM (SR): 64.6%
- inhibition at 10 µM (A549/ATCC): 39.4%
- inhibition at 10 µM (EKVX): 42.2%
- inhibition at 10 µM (HOP-62): 12%
- inhibition at 10 µM (HOP-92): 26%
- inhibition at 10 µM (NCI-H226): 26.7%
- inhibition at 10 µM (NCI-H23): 17.5%
- inhibition at 10 µM (NCI-H322M): 9.97%
- inhibition at 10 µM (NCI-H460): 28.8%
- inhibition at 10 µM (NCI-H522): 31%
- inhibition at 10 µM (COLO 205): 25.1%
- inhibition at 10 µM (HCC-2998): < 5%
- inhibition at 10 µM (HCT-116): 35.2%
- inhibition at 10 µM (HCT-15): 48.5%
- inhibition at 10 µM (HT29): 17.3%
- inhibition at 10 µM (KM12): 26.2%
- inhibition at 10 µM (SW-620): 7.9%
- inhibition at 10 µM (SF-268): 28.5%
- inhibition at 10 µM (SF-295): 32.7%
- inhibition at 10 µM (SF-539): 38.7%
- inhibition at 10 µM (SNB-19): 30.7%
- inhibition at 10 µM (SNB-75): 49.3%
- inhibition at 10 µM (U251): 34.3%
- inhibition at 10 µM (M14): 40.3%
- inhibition at 10 µM (MALME-3M): 21%
- inhibition at 10 µM (MDA-MB-435): 27.3%
- inhibition at 10 µM (SK-MEL-28): 24.6%
- inhibition at 10 µM (SK-MEL-2): 23.1%
- inhibition at 10 µM (SK-MEL-5): 34.9%
- inhibition at 10 µM (UACC-257): 25.4%
- inhibition at 10 µM (UACC-62): 44.5%
- inhibition at 10 µM (786-0): 53.1%
- inhibition at 10 µM (A498): 23.2%
- inhibition at 10 µM (ACHN): 21.3%
- inhibition at 10 µM (CAKI-1): 55.6%
- inhibition at 10 µM (RXF 393): 55.3%
- inhibition at 10 µM (SN12C): 21.3%
- inhibition at 10 µM (TK-10): 23.8%
- inhibition at 10 µM (UO-31): 38.5%
- IC50 (hCA IX): 0.22 ± 0.01 µM
- IC50 (hCA XII): 0.27 µM and 0.272 µM
- melting point: 121 to 124 °C

Compound: CCOC(=O)c1ccc(NC(=O)COC(=O)c2cn(-c3ccc(S(N)(=O)=O)cc3)nc2-c2ccc(S(C)(=O)=O)cc2)cc1 [Compound 5e, 2-[(4-(Ethoxycarbonyl)phenyl)amino]-2-oxoethyl 3-(4-(methylsulfonyl)phenyl)-1-(4-sulfamoylphenyl)-1H-pyrazole-4-carboxylate]
- inhibition at 10 µM (CCRF-CEM): 9.47%
- inhibition at 10 µM (HL-60(TB)): 6.26%
- inhibition at 10 µM (K-562): 9.58%
- inhibition at 10 µM (MOLT-4): < 5%
- inhibition at 10 µM (RPMI-8226): 6.03%
- inhibition at 10 µM (SR): 22.1%
- inhibition at 10 µM (A549/ATCC): < 5%
- inhibition at 10 µM (EKVX): < 5%
- inhibition at 10 µM (HOP-62): < 5%
- inhibition at 10 µM (HOP-92): < 5%
- inhibition at 10 µM (NCI-H226): < 5%
- inhibition at 10 µM (NCI-H23): 8.79%
- inhibition at 10 µM (NCI-H322M): < 5%
- inhibition at 10 µM (NCI-H460): < 5%
- inhibition at 10 µM (NCI-H522): 13.5%
- inhibition at 10 µM (COLO 205): < 5%
- inhibition at 10 µM (HCC-2998): < 5%
- inhibition at 10 µM (HCT-116): < 5%
- inhibition at 10 µM (HCT-15): < 5%
- inhibition at 10 µM (HT29): < 5%
- inhibition at 10 µM (KM12): < 5%
- inhibition at 10 µM (SW-620): < 5%
- inhibition at 10 µM (SF-268): 5.8%
- inhibition at 10 µM (SF-295): < 5%
- inhibition at 10 µM (SF-539): 11.8%
- inhibition at 10 µM (SNB-19): 8.29%
- inhibition at 10 µM (SNB-75): 19.6%
- inhibition at 10 µM (U251): 5.78%
- inhibition at 10 µM (M14): < 5%
- inhibition at 10 µM (MALME-3M): < 5%
- inhibition at 10 µM (MDA-MB-435): < 5%
- inhibition at 10 µM (SK-MEL-28): < 5%
- inhibition at 10 µM (SK-MEL-2): < 5%
- inhibition at 10 µM (SK-MEL-5): < 5%
- inhibition at 10 µM (UACC-257): < 5%
- inhibition at 10 µM (UACC-62): 15.8%
- inhibition at 10 µM (786-0): 13.2%
- inhibition at 10 µM (A498): 19.7%
- inhibition at 10 µM (ACHN): 8.32%
- inhibition at 10 µM (CAKI-1): 30.8%
- inhibition at 10 µM (RXF 393): < 5%
- inhibition at 10 µM (SN12C): 7.85%
- inhibition at 10 µM (TK-10): < 5%
- inhibition at 10 µM (UO-31): 21.9%
- Ki (hCA IX): 40 nM
- IC50 (hCA IX): 0.04 ± 0.002 µM
- IC50 (hCA XII): 0.16 µM and 0.167 µM
- melting point: 127 to 130 °C
